Data on four compounds can be found in EPA's ToxValDB 9.5 (doi:10.2903/j.efsa.2014.3787).

Molecules are shown by their SMILES.

Series [1] has as its system Aphidius rhopalosiphi. Nature of the series: LR50; higher = less toxic. The conditions noted are these: acute; duration: 48 hours; mortality.
The test system of series [2] is Typhlodromus pyri. Description: LR50; higher = less toxic. As to conditions: chronic/long-term; duration: 7 days; mortality.
Series [3] deals with Oryctolagus sp.
The test system of series [4] is Rattus norvegicus.
For series [5], the system named is Hypoaspis aculeifer. As to conditions: acute, duration: 14 days.
The subject of series [6] is Daphnia magna. As to conditions: chronic/long-term; duration: 21 days; mobility.
Series [7] relates to Coturnix japonica. As to conditions: reproduction developmental; duration: 6 weeks.
Series [8] concerns Colinus virginianus. The conditions noted are these: acute, oral.
In series [9] the test system is Folsomia candida. As to conditions: chronic/long-term, duration: 28 days.
Series [10] deals with Lepomis macrochirus. As to conditions: acute; duration: 96 hours; mortality.
The subject of series [11] is Oncorhynchus mykiss.
Series [12] has as its system Apis mellifera. The conditions noted are these: acute, duration: 72 hours, mortality.
For series [13], the system named is Tagia sp. The conditions noted are these: for LC50: acute, duration: 14 days, mortality; for NOEC: chronic/long-term, duration: 8 weeks.

The term LOAEL denotes the lowest dose or exposure tested at which an adverse effect was seen. A word on the NOAEL: it is the highest dose or exposure tested at which no adverse effect was seen.

For the compound `CCOc1nc(NC)nc(NC(=O)NS(=O)(=O)c2ccccc2C(=O)OC)n1` [Ethametsulfuron-methyl], the LR50 in series [1] is > 18.8 g/ha; in [2], > 11.4 g/ha. The LOAEL in series [3] (developmental, development) came out at 250 mg/kg-day. The NOAEL came out at 250 mg/kg-day in [3] (reproduction developmental, organ weight) and 21 mg/kg-day in [4] (chronic, duration: 2 years, clinical chemistry). For the same compound, the LD50 in series [4] (acute, oral, mortality) was > 5000 mg/kg-day; in series [8] (duration: 5 days, diet), > 1160 mg/kg-day; in series [8] it was 2250 mg/kg-day; in [12] (dermal), 4.62 µg/piece; in series [12] (oral, unspecified), 40.8 µg/piece. For the same compound, the NOEC in series [5] (reproduction) turned out to be 100 mg/kg; in series [6], 4.7 mg/L; in [7], 229 mg/kg-day; in series [9] (reproduction) it was 100 mg/kg; in series [11] (chronic/long-term, duration: 87 days, growth) it was 5.4 mg/L; in series [13] (reproduction), 27.3 mg/kg. The LC50 in [10] is > 123 µg/mL; in series [11] (acute, duration: 96 hours, mortality), > 126 µg/mL; in series [13], 116 mg/kg.

On to `CCOc1nc(N)nc(NC(=O)NS(=O)(=O)c2ccccc2C(=O)OC)n1` [N-Demethyl ethametsulfuronmethyl], for which, in [9], the NOEC amounted to 50 mg/kg. The LC50 in [13] was > 100 mg/kg.

Consider `NS(=O)(=O)c1ccccc1C(=O)O` [2-Sulfamoylbenzoic acid], for which, in [13], the LC50 was > 1000 mg/kg and the NOEC turned out to be 1000 mg/kg.

As to `CCOc1nc(NC)nc(NC(N)=O)n1` [Ethametsulfuron methyl metabolite (IN-B9161)], the NOEC in [5] and in series [9] was 76.9 mg/kg each time.
